“And” between values parts separate entries of the source, which are not always exact repeats. Equal values may be shown once.

The results in this text go back to patent US20120201749A1, “NP-1 Antagonists and Their Therapeutic Use” (priority 2009, published 2012).

One series addresses NP-1 (Homo sapiens, UniProt O14786). The series is described as follows: Biotinylated-VEGF-A165 (bt-VEGF-A165) binding to NP-1. To be noted: for inhibition at 3 µM: 3 μM compound, read-out: Screen (% inhibition at 3 μM); for inhibition at 30 µM: 30 μM compound, read-out: Screen (% inhibition at 30 μM). An outline of the steps:
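Both formats: compound with bt-VEGF-A165 for 2 h at room temperature, detection via streptavidin-HRP at A450 (ref A595). Cell-based: Ad.NP-1-transfected DU145 cells, 2 nM tracer, nonspecific from 100-fold unlabelled VEGF-A165. Cell-free: NP-1-coated wells (3 μg/ml), 0.25 nM tracer, nonspecific from uncoated wells.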

In series [1] the test system is human non-small-cell lung carcinoma A549 cells. The experiment in a line: Lung cancer in vivo study, A549 xenografts in nude mice. Here is the method: For the efficacy study, human non-small-cell lung carcinoma A549 cells were cultured in growth medium RPMI 1640. The cells at 90% confluence were detached, counted and suspended in PBS to make the final concentration of cells 5×10^7/ml for inoculation.
The compound administration began two weeks after A549 cells were inoculated in female Balb/c nude mice. Compound 58 was dosed intraperitoneally at 80 mg/kg daily for a period of 2 weeks. Tumour volume was monitored by measuring the length and the width of the tumour using an electronic digital caliper (Fisher Scientific) daily for a period of 2 weeks. Tumour volumes were calculated using a formula (length×width^2/2). At the end of the experiment, tumours were dissected and weighed.

NP-1, sequence (O14786 22-923): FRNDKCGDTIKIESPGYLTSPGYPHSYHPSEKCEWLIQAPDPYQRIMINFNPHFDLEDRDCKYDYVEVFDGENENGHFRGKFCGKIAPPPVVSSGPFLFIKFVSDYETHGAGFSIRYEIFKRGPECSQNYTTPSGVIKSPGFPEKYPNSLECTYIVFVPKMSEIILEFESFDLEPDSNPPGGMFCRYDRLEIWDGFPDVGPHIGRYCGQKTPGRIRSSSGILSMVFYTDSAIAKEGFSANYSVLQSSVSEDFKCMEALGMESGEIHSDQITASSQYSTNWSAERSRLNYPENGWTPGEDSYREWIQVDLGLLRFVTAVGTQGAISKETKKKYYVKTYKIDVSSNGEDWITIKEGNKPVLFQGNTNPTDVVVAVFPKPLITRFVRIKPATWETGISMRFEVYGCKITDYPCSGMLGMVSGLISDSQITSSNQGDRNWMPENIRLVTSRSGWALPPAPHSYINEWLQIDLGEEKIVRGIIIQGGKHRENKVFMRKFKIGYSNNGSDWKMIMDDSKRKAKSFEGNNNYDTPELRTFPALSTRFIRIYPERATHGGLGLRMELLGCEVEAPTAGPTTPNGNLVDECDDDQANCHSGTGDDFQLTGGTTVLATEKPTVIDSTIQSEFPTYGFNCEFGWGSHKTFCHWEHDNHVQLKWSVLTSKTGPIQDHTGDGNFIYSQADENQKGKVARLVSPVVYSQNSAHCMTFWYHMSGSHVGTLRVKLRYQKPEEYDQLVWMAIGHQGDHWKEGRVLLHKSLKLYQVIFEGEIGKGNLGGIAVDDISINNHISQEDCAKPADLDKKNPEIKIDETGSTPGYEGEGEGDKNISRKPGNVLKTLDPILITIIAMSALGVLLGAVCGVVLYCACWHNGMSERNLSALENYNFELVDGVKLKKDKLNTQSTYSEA

For `N=C(N)NCCC[C@H](NC(=O)c1sccc1NS(=O)(=O)c1cccc(NCc2csc(C3CCNCC3)n2)c1)C(=O)O` [Compound 56, (S)-5-guanidino-2-[(3-{3-[(2-piperidin-4-yl-thiazol-4-ylmethyl)-amino]-benzenesulfonylamino}-thiophene-2-carbonyl)-amino]-pentanoic acid], at NP-1, the inhibition (usually how much of the control response was suppressed) at 3 µM was determined as 57% and the inhibition at 30 µM is 89%.

In the case of `N=C(N)NCCC[C@H](NC(=O)c1sccc1NS(=O)(=O)c1cccc(NCc2csc(N3CCN(c4ccncc4)CC3)n2)c1)C(=O)O` [Compound 57, (S)-5-guanidino-2-{[3-(3-{[2-(4-pyridin-4-yl-piperazin-1-yl)-thiazol-4-ylmethyl]-amino}-benzenesulfonylamino)-thiophene-2-carbonyl]-amino}-pentanoic acid], at NP-1, the IC50 – broadly, the concentration that inhibits the measured activity by half – is 40 nM; the inhibition at 3 µM came to 98%; the inhibition at 30 µM was found to be 99%.

Regarding `N=C(N)NCCC[C@H](NC(=O)c1sccc1NS(=O)(=O)c1cccc(NCc2csc(N3CCNCC3)n2)c1)C(=O)O` [Compound 58, (S)-5-guanidino-2-[(3-{3-[(2-piperazin-1-yl-thiazol-4-ylmethyl)-amino]-benzenesulfonylamino}-thiophene-2-carbonyl]-amino]-pentanoic acid], the “reduction of the rate of tumour growth” value in series [1] (80 mg/kg intraperitoneally daily for 2 weeks, A549 tumours, p=0.017 by linear regression test) was 52% and 50%. In series [1] (80 mg/kg intraperitoneally daily for 2 weeks, tumours weighed at end of experiment, p=0.04 by Mann Whitney test), the “tumour weight reduced by” value is recorded as 27%. Besides, the “effect on rate of tumour growth (in words)” value in series [1] (preclinical model of lung cancer) is on record as “significantly reduced the rate of tumour growth”. Also, the evidence of toxicity result in series [1] (single daily dose for two weeks, murine model of lung cancer) is “No evidence of toxicity”. For the same compound, at NP-1, the half-inhibitory concentration (IC50) came to 159 nM, the inhibition at 3 µM is 72% and the inhibition at 30 µM was found to be 96%.

On to `N=C(N)NCCC[C@H](NC(=O)c1sccc1NS(=O)(=O)c1cccc(NCc2csc(N3CCN(Cc4cccnc4)CC3)n2)c1)C(=O)O` [Compound 59, (S)-5-guanidino-2-{[3-(3-{[2-(4-pyridin-3-ylmethyl-piperazin-1-yl)-thiazol-4-ylmethyl]-amino}-benzenesulfonylamino)-thiophene-2-carbonyl]-amino}-pentanoic acid], for which, on NP-1, the inhibition at 3 µM is 58% and the inhibition at 30 µM stood at 94%.

For `N=C(N)NCCC[C@H](NC(=O)c1sccc1NS(=O)(=O)c1cccc(NCc2csc(N3CCC(N4CCOCC4)CC3)n2)c1)C(=O)O` [Compound 60, (S)-5-guanidino-2-{[3-(3-{[2-(4-morpholin-4-yl-piperidin-1-yl)-thiazol-4-ylmethyl]-amino}-benzenesulfonylamino)-thiophene-2-carbonyl]-amino}-pentanoic acid], on NP-1, the half-inhibitory concentration (IC50) came out at 319 nM, the inhibition at 3 µM stood at 70% and the inhibition at 30 µM was determined as 96%.

As for `N=C(N)NCCC[C@H](NC(=O)c1sccc1NS(=O)(=O)c1cccc(NCc2csc(N3CCN(c4cccnc4)CC3)n2)c1)C(=O)O` [Compound 62, (S)-5-guanidino-2-{[3-(3-{[2-(4-pyridin-3-yl-piperazin-1-yl)-thiazol-4-ylmethyl]-amino}-benzenesulfonylamino)-thiophene-2-carbonyl]-amino}-pentanoic acid], on NP-1, the inhibition at 3 µM amounted to 68% and the inhibition at 30 µM is 95%.

For `N=C(N)NCCC[C@H](NC(=O)c1sccc1NS(=O)(=O)c1cccc(NCc2csc(N3CCN(c4ccccn4)CC3)n2)c1)C(=O)O` [Compound 63, (S)-5-guanidino-2-{[3-(3-{[2-(4-pyridin-2-yl-piperazin-1-yl)-thiazol-4-ylmethyl]-amino}-benzenesulfonylamino)-thiophene-2-carbonyl]-amino}-pentanoic acid], at NP-1, the inhibition at 3 µM came out at 49% and the inhibition at 30 µM stood at 83%.

For `N=C(N)NCCC[C@H](NC(=O)c1sccc1NS(=O)(=O)c1cccc(NCc2csc(N3CCC(N)CC3)n2)c1)C(=O)O` [Compound 64, (S)-5-guanidino-2-{[3-(3-{[2-(4-amino-piperidin-1-yl)-thiazol-4-ylmethyl]-amino}-benzenesulfonylamino)-thiophene-2-carbonyl]-amino}-pentanoic acid], on NP-1, the inhibition at 3 µM came out at 72% and the inhibition at 30 µM came out at 92%.

`N=C(N)NCCC[C@H](NC(=O)c1sccc1NS(=O)(=O)c1cccc(NCc2csc(N3CCN(Cc4ccccn4)CC3)n2)c1)C(=O)O` [Compound 65, (S)-5-guanidino-2-{[3-(3-{[2-(4-pyridin-2-ylmethyl-piperazin-1-yl)-thiazol-4-ylmethyl]-amino}-benzenesulfonylamino)-thiophene-2-carbonyl]-amino}-pentanoic acid]: at NP-1, the inhibition at 3 µM amounted to 40% and the inhibition at 30 µM turned out to be 90%.

For `N=C(N)NCCC[C@H](NC(=O)c1sccc1NS(=O)(=O)c1cccc(NCc2csc(N3CCN(c4ncccn4)CC3)n2)c1)C(=O)O` [Compound 66, (S)-5-guanidino-2-{[3-(3-{[2-(4-pyrimidin-2-yl-piperazin-1-yl)-thiazol-4-ylmethyl]-amino}-benzenesulfonylamino)-thiophene-2-carbonyl]-amino}-pentanoic acid], on NP-1, the inhibition at 3 µM worked out at 71% and the inhibition at 30 µM was found to be 93%.

As to `Cc1cc(CNc2nc(CNc3cccc(S(=O)(=O)Nc4ccsc4C(=O)N[C@@H](CCCNC(=N)N)C(=O)O)c3)cs2)no1` [Compound 67], at NP-1, the inhibition at 3 µM stood at 44% and the inhibition at 30 µM turned out to be 90%.

As to `N=C(N)NCCC[C@H](NC(=O)c1sccc1NS(=O)(=O)c1cccc(NCc2cnn(CCN3CCN(c4ccccn4)CC3)c2)c1)C(=O)O` [Compound 68], on NP-1, the inhibition at 3 µM stood at 37% and the inhibition at 30 µM was determined as 89%.

In the case of `COc1ccccc1-c1nc(CNc2cccc(S(=O)(=O)Nc3ccsc3C(=O)N[C@@H](CCCNC(=N)N)C(=O)O)c2)no1` [Compound 69, (S)-5-Guanidino-2-{[3-(3-{[5-(2-methyoxy-phenyl)-[1,2,4]oxadiazol-3-ylmethyl]-amino}-benzenesulfonylamino)-thiophene-2-carbonyl]-amino}-pentanoic acid], on NP-1, the inhibition at 3 µM was found to be 37% and the inhibition at 30 µM is 79%.

`N#Cc1cccc(NC(=O)CNc2cccc(S(=O)(=O)Nc3ccsc3C(=O)N[C@@H](CCCNC(=N)N)C(=O)O)c2)c1` [Compound 70, (S)-2-{[3-(3-{[(3-Cyano-phenylcarbamoyl)-methyl]-amino}-benzenesulfonylamino)-thiophene-2-carbonyl]-amino}-5-guanidino-pentanoic acid]: on NP-1, the inhibition at 3 µM is 25% and the inhibition at 30 µM is 63%.

Take `N=C(N)NCCC[C@H](NC(=O)c1sccc1NS(=O)(=O)c1cccc(NCc2csc(N3CCOCC3)n2)c1)C(=O)O` [Compound 71, (S)-5-guanidino-2-[(3-{3-[(2-morpholin-4-yl-thiazol-4-ylmethyl)-amino]-benzenesulfonylamino}-thiophene-2-carbonyl]-amino]-pentanoic acid]: at NP-1, the inhibition at 3 µM turned out to be 53% and the inhibition at 30 µM was determined as 91%.

For `N=C(N)NCCC[C@H](NC(=O)c1sccc1NS(=O)(=O)c1cccc(NCc2csc(C(=O)O)n2)c1)C(=O)O` [Compound 72], on NP-1, the inhibition at 3 µM came to 31% and the inhibition at 30 µM came out at 83%.

With `CCN(Cc1ccncc1)c1nc(CNc2cccc(S(=O)(=O)Nc3ccsc3C(=O)N[C@@H](CCCNC(=N)N)C(=O)O)c2)cs1` [Compound 73, (S)-2-{[3-(3-{[2-(Ethyl-pyridin-4-ylmethyl-amino)-thiazol-4-ylmethyl]-amino}-benzenesulfonylamino)-thiophene-2-carbonyl]-amino}-5-guanidino-pentanoic acid], the inhibition at 3 µM at NP-1 is 69%.

In the case of `N=C(N)NCCC[C@H](NC(=O)c1sccc1NS(=O)(=O)c1cccc(NCc2csc(N3CCN(c4cnccn4)CC3)n2)c1)C(=O)O` [Compound 74], the inhibition at 3 µM on NP-1 is 55%.

For `N=C(N)NCCC[C@H](NC(=O)c1sccc1NS(=O)(=O)c1cccc(NCc2csc(N3CCN(c4ncncn4)CC3)n2)c1)C(=O)O` [Compound 75, (S)-5-guanidino-2-{[3-(3-{[2-(4-[1,3,5]triazin-2-yl-piperazin-1-yl)-thiazol-4-ylmethyl]-amino}-benzenesulfonylamino)-thiophene-2-carbonyl]-amino}-pentanoic acid], the inhibition at 3 µM at NP-1 was found to be 63%.

For `N=C(N)NCCC[C@H](NC(=O)c1sccc1NS(=O)(=O)c1cccc(NCc2csc(N3CCN(c4nccs4)CC3)n2)c1)C(=O)O` [Compound 76, (S)-5-guanidino-2-{[3-(3-{[2-(4-thiazol-2-yl-piperazin-1-yl)-thiazol-4-ylmethyl]-amino}-benzenesulfonylamino)-thiophene-2-carbonyl]-amino}-pentanoic acid], the inhibition at 3 µM on NP-1 is 68%.

For the compound `N=C(N)NCCC[C@H](NC(=O)c1sccc1NS(=O)(=O)c1cccc(NCc2csc(N3CCN(CCO)CC3)n2)c1)C(=O)O` [Compound 77, (S)-5-Guanidino-2-({3-[3-({2-[4-(2-hydroxy-ethyl)-piperazin-1-yl]-thiazol-4-ylmethyl}-amino)-benzenesulfonylamino]-thiophene-2-carbonyl}-amino)-pentanoic acid], on NP-1, the IC50 was determined as 3700 nM and the inhibition at 3 µM came to 47%.
